Assay results reported in patent publication US10689367B2, “Triazole pyridyl compounds as agonists of the APJ receptor” (AMGEN INC., priority 2016, dated 2020).

molecular target: human APJ receptor (Homo sapiens (Human), UniProt P35414); test: [35S]GTPγS binding assay on membranes from CHO cells stably expressing human APJ receptor; format: biochemical; conditions: membranes of CHO cells stably expressing human APJ receptor, read-out: Activity hAPJ SPA EC50 IP
Procedure, shortened: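 [35S]GTPγS binding measured on membranes from CHO cells stably expressing FLAG-tagged human APJ, with GDP, MgCl2 and NaCl levels optimized beforehand. Incubation 90 min at RT, imager read-out; EC50 from non-linear regression, averaged over several independent experiments.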

Chain of human APJ receptor (P35414 whole entry): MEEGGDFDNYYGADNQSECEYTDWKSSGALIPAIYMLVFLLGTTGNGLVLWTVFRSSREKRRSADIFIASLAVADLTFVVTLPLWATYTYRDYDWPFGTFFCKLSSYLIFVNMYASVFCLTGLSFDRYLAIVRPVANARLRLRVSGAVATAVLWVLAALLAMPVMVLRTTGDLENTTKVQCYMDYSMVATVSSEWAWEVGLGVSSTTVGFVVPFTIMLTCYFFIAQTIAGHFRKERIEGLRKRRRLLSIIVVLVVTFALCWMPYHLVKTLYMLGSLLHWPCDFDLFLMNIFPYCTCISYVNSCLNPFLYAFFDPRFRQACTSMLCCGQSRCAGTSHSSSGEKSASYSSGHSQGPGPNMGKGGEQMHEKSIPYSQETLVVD

Going from `COc1cccc(-c2nnc(NS(=O)(=O)[C@@H](C)[C@H](OC)c3ncc(Cl)cn3)n2[C@@H](C)c2ccon2)n1` (single isomer, unassigned) [Example 264.0, (1R,2S)-1-(5-chloro-2-pyrimidinyl)-1-methoxy-N-(5-(6-methoxy-2-pyridinyl)-4-((1R)-1-(1,2-oxazol-3-yl)ethyl)-4H-1,2,4-triazol-3-yl)-2-propanesulfonamide or (1R,2S)-1-(5-chloro-2-pyrimidinyl)-1-methoxy-N-(5-(6-methoxy-2-pyridinyl)-4-((1S)-1-(1,2-oxazol-3-yl)ethyl)-4H-1,2,4-triazol-3-yl)-2-propanesulfonamide] to `COc1cccc(-c2nnc(NS(=O)(=O)[C@@H](C)[C@H](OC)c3ncc(Cl)cn3)n2[C@H](C)c2cscn2)n1` (single isomer, unassigned) [Example 345.0, (1R,2S)-1-(5-chloropyrimidin-2-yl)-1-methoxy-N-(5-(6-methoxypyridin-2-yl)-4-((S)-1-(thiazol-4-yl)ethyl)-4H-1,2,4-triazol-3-yl)propane-2-sulfonamide or (1R,2 S)-1-(5-chloropyrimidin-2-yl)-1-methoxy-N-(5-(6-methoxypyridin-2-yl)-4-((R)-1-(thiazol-4-yl)ethyl)-4H-1,2,4-triazol-3-yl)propane-2-sulfonamide], the EC50 falls from 2.9 nM to 1.1 nM (2.6-fold). The second is the more potent here.

Compared with `COc1cccc(-c2nnc(NS(=O)(=O)[C@@H](C)[C@H](OC)c3ncc(Cl)cn3)n2[C@@H](C)c2ncc(C)o2)n1` (single isomer, unassigned) [Example 256.0, (1R,2S)-1-(5-chloro-2-pyrimidinyl)-1-methoxy-N-(5-(6-methoxy-2-pyridinyl)-4-((1S)-1-(5-methyl-1,3-oxazol-2-yl)ethyl)-4H-1,2,4-triazol-3-yl)-2-propanesulfonamide or (1R,2S)-1-(5-chloro-2-pyrimidinyl)-1-methoxy-N-(5-(6-methoxy-2-pyridinyl)-4-((1R)-1-(5-methyl-1,3-oxazol-2-yl)ethyl)-4H-1,2,4-triazol-3-yl)-2-propanesulfonamide], `COc1cccc(-c2nnc(NS(=O)(=O)[C@@H](C)[C@H](OC)c3ncc(Cl)cn3)n2C(C)C)n1` [Example 11.0, (1R,2S)-1-(5-chloro-2-pyrimidinyl)-1-methoxy-N-(5-(6-methoxy-2-pyridinyl)-4-(2-propanyl)-4H-1,2,4-triazol-3-yl)-2-propanesulfonamide] is 13-fold higher in EC50: 0.48 nM for the first, 6.4 nM for the second. The first is the more potent here.

Compared with `COc1cccc(-c2nnc(NS(=O)(=O)[C@@H](C)[C@H](OC)c3ncc(Cl)cn3)n2CC2CCC2)n1` [Example 73.0], `COc1cccc(-c2nnc(NS(=O)(=O)[C@@H](C)[C@H](OC)c3ncc(Cl)cn3)n2CC2CCOCC2)n1` [Example 302.0, (1R,2S)-1-(5-chloropyrimidin-2-yl)-1-methoxy-N-(5-(6-methoxypyridin-2-yl)-4-((tetrahydro-2H-pyran-4-yl)methyl)-4H-1,2,4-triazol-3-yl)propane-2-sulfonamide] is 18-fold higher in EC50: 3 nM for the first, 53 nM for the second.

Going from `COc1cccc(-c2nnc(NS(=O)(=O)[C@@H](C)[C@H](OC)c3ncc(Cl)cn3)n2Cc2cc(C)on2)n1` [Example 271.0, (1R,2S)-1-(5-chloropyrimidin-2-yl)-1-methoxy-N-(5-(6-methoxypyridin-2-yl)-4-((5-methylisoxazol-3-yl)methyl)-4H-1,2,4-triazol-3-yl)propane-2-sulfonamide] to `COc1cccc(-c2nnc(NS(=O)(=O)[C@@H](C)[C@H](OC)c3ncc(Cl)cn3)n2C[C@H]2CCCO2)n1` (single isomer, unassigned) [Example 280.0, (1R,2S)-1-(5-chloropyrimidin-2-yl)-1-methoxy-N-(5-(6-methoxypyridin-2-yl)-4-(((R)-tetrahydrofuran-2-yl)methyl)-4H-1,2,4-triazol-3-yl)propane-2-sulfonamide or (1R,2S)-1-(5-chloropyrimidin-2-yl)-1-methoxy-N-(5-(6-methoxypyridin-2-yl)-4-(((S)-tetrahydrofuran-2-yl)methyl)-4H-1,2,4-triazol-3-yl)propane-2-sulfonamide], the EC50 rises from 5.4 nM to 21 nM (3.9-fold). The first is the more potent here.

`Cc1cnc([C@H](OC(C)C)[C@H](C)S(=O)(=O)Nc2nnc(-c3cncc(C)c3)n2C2(C)CC2)nc1` [Example 58.0] and `CC[C@H]([C@@H]1CCCCO1)n1c(NS(=O)(=O)[C@@H](C)[C@H](OC)c2ncc(C)cn2)nnc1-c1cncc(C)c1` (single isomer, unassigned) [Example 334.0] are within 1.5-fold of each other in EC50: 42 nM for the first, 29 nM for the second.

Compared with `COc1cccc(-c2nnc(NS(=O)(=O)[C@@H](C)[C@H](C)c3ncc(Cl)cn3)n2[C@@H](C)c2ncnn2C)n1` (single isomer, unassigned) [Example 251.0, (2S,3R)-3-(5-chloro-2-pyrimidinyl)-N-(5-(6-methoxy-2-pyridinyl)-4-((1R)-1-(1-methyl-1H-1,2,4-triazol-5-yl)ethyl)-4H-1,2,4-triazol-3-yl)-2-butanesulfonamide or (2S,3R)-3-(5-chloro-2-pyrimidinyl)-N-(5-(6-methoxy-2-pyridinyl)-4-((1S)-1-(1-methyl-1H-1,2,4-triazol-5-yl)ethyl)-4H-1,2,4-triazol-3-yl)-2-butanesulfonamide], `COc1cccc(-c2nnc(NS(=O)(=O)[C@@H](C)[C@H](OC)c3ncc(Cl)cn3)n2[C@@H](C)c2ncnn2C)n1` (single isomer, unassigned) [Example 248.0, (1R,2S)-1-(5-chloro-2-pyrimidinyl)-1-methoxy-N-(5-(6-methoxy-2-pyridinyl)-4-((1S)-1-(1-methyl-1H-1,2,4-triazol-5-yl)ethyl)-4H-1,2,4-triazol-3-yl)-2-propanesulfonamide or (1R,2S)-1-(5-chloro-2-pyrimidinyl)-1-methoxy-N-(5-(6-methoxy-2-pyridinyl)-4-((1R)-1-(1-methyl-1H-1,2,4-triazol-5-yl)ethyl)-4H-1,2,4-triazol-3-yl)-2-propanesulfonamide] is 160-fold higher in EC50: 1.7 nM for the first, 270 nM for the second. The first is the more potent here.

First: CC[C@H](c1cc(F)cc(F)c1)n1c(NS(=O)(=O)[C@@H](C)[C@H](OC)c2ncc(Cl)cn2)nnc1-c1cccc(OC)n1 (single isomer, unassigned) [Example 342.0, (1R,2S)-1-(5-chloropyrimidin-2-yl)-N-(4-((R)-1-(3,5-difluorophenyl)propyl)-5-(6-methoxypyridin-2-yl)-4H-1,2,4-triazol-3-yl)-1-methoxypropane-2-sulfonamide or (1R,2S)-1-(5-chloropyrimidin-2-yl)-N-(4-((S)-1-(3,5-difluorophenyl)propyl)-5-(6-methoxypyridin-2-yl)-4H-1,2,4-triazol-3-yl)-1-methoxypropane-2-sulfonamide]
Second: COc1cccc(-c2nnc(NS(=O)(=O)[C@@H](C)[C@H](OC)c3ncc(Cl)cn3)n2[C@@H](C)c2ncc(C)o2)n1 (single isomer, unassigned) [Example 255.0, (1R,2S)-1-(5-chloro-2-pyrimidinyl)-1-methoxy-N-(5-(6-methoxy-2-pyridinyl)-4-((1S)-1-(5-methyl-1,3-oxazol-2-yl)ethyl)-4H-1,2,4-triazol-3-yl)-2-propanesulfonamide or (1R,2S)-1-(5-chloro-2-pyrimidinyl)-1-methoxy-N-(5-(6-methoxy-2-pyridinyl)-4-((1R)-1-(5-methyl-1,3-oxazol-2-yl)ethyl)-4H-1,2,4-triazol-3-yl)-2-propanesulfonamide]
The EC50 of the first is 150-fold lower: 0.05 nM for the first, 7.5 nM for the second. The first is the more potent here.

`COc1cccc(-c2nnc(NS(=O)(=O)[C@@H](C)[C@H](OC)c3ncc(Cl)cn3)n2[C@@H]2CC[C@H]2OC)n1` (single isomer, unassigned) [Example 162.0, (1R,2S)-1-(5-Chloropyrimidin-2-yl)-1-methoxy-N-(4-((1R,2R)-2-methoxycyclobutyl)-5-(6-methoxypyridin-2-yl)-4H-1,2,4-triazol-3-yl)propane-2-sulfonamide or (1R,2S)-1-(5-chloropyrimidin-2-yl)-1-methoxy-N-(4-((1S,2S)-2-methoxycyclobutyl)-5-(6-methoxypyridin-2-yl)-4H-1,2,4-triazol-3-yl)propane-2-sulfonamide] and `COc1cccc(-c2nnc(NS(=O)(=O)[C@@H](C)[C@H](OC)c3ncc(Cl)cn3)n2[C@@H]2CCC23CCC3)n1` (single isomer, unassigned) [Example 93.0] are within 1.5-fold of each other in EC50: 2.8 nM for the first, 2.3 nM for the second.

Compared with `CC[C@@H](c1conc1C)n1c(NS(=O)(=O)[C@@H](C)[C@H](C)c2ncc(Cl)cn2)nnc1-c1cccc(OC)n1` (single isomer, unassigned) [Example 231.0, (2S,3R)-3-(5-chloro-2-pyrimidinyl)-N-(5-(6-methoxy-2-pyridinyl)-4-((1S)-1-(3-methyl-1,2-oxazol-4-yl)propyl)-4H-1,2,4-triazol-3-yl)-2-butanesulfonamide or (2S,3R)-3-(5-chloro-2-pyrimidinyl)-N-(5-(6-methoxy-2-pyridinyl)-4-((1R)-1-(3-methyl-1,2-oxazol-4-yl)propyl)-4H-1,2,4-triazol-3-yl)-2-butanesulfonamide], `COc1cccc(-c2nnc(NS(=O)(=O)[C@@H](C)[C@H](C)c3ncc(C)cn3)n2Cc2ccon2)n1` [Example 291.0, (2S,3R)-N-(4-(isoxazol-3-ylmethyl)-5-(6-methoxypyridin-2-yl)-4H-1,2,4-triazol-3-yl)-3-(5-methylpyrimidin-2-yl)butane-2-sulfonamide] is 1.7-fold higher in EC50: 21 nM for the first, 35 nM for the second.

`COc1cccc(-c2nnc(NS(=O)(=O)[C@@H](C)[C@@H](OC(C)C)c3ncc(C)cn3)n2[C@@H](C)c2ccon2)n1` (single isomer, unassigned) [Example 270.0, (1S,2S)-1-isopropoxy-N-(4-((R)-1-(isoxazol-3-yl)ethyl)-5-(6-methoxypyridin-2-yl)-4H-1,2,4-triazol-3-yl)-1-(5-methylpyrimidin-2-yl)propane-2-sulfonamide or (1S,2S)-1-isopropoxy-N-(4-((S)-1-(isoxazol-3-yl)ethyl)-5-(6-methoxypyridin-2-yl)-4H-1,2,4-triazol-3-yl)-1-(5-methylpyrimidin-2-yl)propane-2-sulfonamide] showed an EC50 of 5.1 nM.
